# Reference: ChEMBL document CHEMBL1130711, “Identification of novel nucleotide phosphonate analogs with potent anti-HCMV activity” (Bioorg Med Chem Lett, 1998)
# Legend:
# MRC5 [1] = experiment: (§1) Compound was tested for cytotoxicity by measuring inhibition of MRC-5 cell proliferation.; assay type: functional, cell-based; conditions: Homo sapiens
# WI-38 [2] = experiment: Compound was tested for antiviral activity against WI-38 cell line using a plaque reduction assay; 10-50; assay type: functional; conditions: Homo sapiens
# WI-38 [3] = experiment: Compound was tested for antiviral activity against WI-38 cell line using a plaque reduction assay; 0.5-1; assay type: functional, cell-based; conditions: Homo sapiens
# MRC5 [4] = experiment: as §1; assay type: functional; conditions: Homo sapiens
# WI-38 [5] = experiment: (§2) Compound was tested for antiviral activity against WI-38 cell line using a plaque reduction assay; assay type: functional; conditions: Homo sapiens
# WI-38 [6] = experiment: as §2; assay type: functional, cell-based; conditions: Homo sapiens
# WI-38 [7] = experiment: Compound was tested for antiviral activity against WI-38 cell line using a plaque reduction assay; 10-100; assay type: functional; conditions: Homo sapiens
# WI-38 [8] = experiment: Compound was tested for antiviral activity against WI-38 cell line using a plaque reduction assay; 0.1-1; assay type: functional, cell-based; conditions: Homo sapiens
# Human betaherpesvirus 5 [9] = experiment: Compound was tested for cytotoxicity against human cytomegalovirus (HCMV).; assay type: functional
# Human betaherpesvirus 5 [10] = experiment: Compound was tested for antiviral activity against human cytomegalovirus (HCMV).; assay type: functional, organism-based
Structure (SMILES),IC50 (MRC5 [1]) [µg/mL],CC50 (MRC5 [4]) [µg/mL],CC50 (WI-38 [5]) [µg/mL],IC50 (WI-38 [6]) [µg/mL],also measured
Nc1nc(O)c2ncn(C[C@@H]3CC[C@H](P(=O)(O)O)O3)c2n1,1.6,> 10,,,CC50 (WI-38 [2]): 10 µg/mL; IC50 (WI-38 [3]): 0.5 µg/mL
Nc1ncc2ncn(C[C@@H]3CC[C@H](P(=O)(O)O)O3)c2n1,,,> 100,100,
Nc1nc(O)c2ncn(C[C@H]3CC[C@@H](P(=O)(O)O)O3)c2n1,,,100,> 10,
Nc1nc(N)c2ncn(C[C@@H]3CC[C@H](P(=O)(O)O)O3)c2n1,,,> 100,> 50,
Nc1nc(O)c2ncn(C[C@H]3CC[C@H](P(=O)(O)O)O3)c2n1,,,> 100,> 10,
Nc1nc(N)c2ncn(C[C@H]3CC[C@H](P(=O)(O)O)O3)c2n1,,,> 100,> 50,
Nc1nc(N)c2ncn(C[C@@H]3CC[C@@H](P(=O)(O)O)O3)c2n1,,,> 100,50,
Nc1nc(O)c2ncn(C[C@@H]3CC[C@@H](P(=O)(O)O)O3)c2n1,0.11,28,,,CC50 (WI-38 [7]): 10 µg/mL; IC50 (WI-38 [8]): 0.1 µg/mL
Nc1nc(N)c2ncn(C[C@H]3CC[C@@H](P(=O)(O)O)O3)c2n1,,,> 100,> 50,
Nc1nc(O)c2ncn(C[C@@H]3CO[C@H](P(=O)(O)O)O3)c2n1,,,,,CC50 (Human betaherpesvirus 5 [9]): > 100 µg/mL; IC50 (Human betaherpesvirus 5 [10]): 45 µg/mL
Nc1ccn(C[C@@H](CO)OCP(=O)(O)O)c(=O)n1.O.O [CIDOFOVIR],0.04,19,,,CC50 (WI-38 [2]): 10 µg/mL; IC50 (WI-38 [8]): 0.1 µg/mL
Nc1nc2c(ncn2COC(CO)CO)c(=O)[nH]1 [GANCICLOVIR],2.1,> 100,,,
